Measured values as given in patent US7745465B2, “Method of enhancing cellular production of molecular chaperone, hydroxylamine derivatives useful for enhancing the chaperone production and the preparation thereof” (CytRx Corporation, priority 1995, dated 2010).

Experiments:
Male Sprague-Dawley rats = experiment: Protection against cardiac ischaemia: survival after 5 minutes coronary occlusion and reperfusion; format: in vivo, rat; details: i.v. 1 mg/kgbw, 5 min. before the occlusion; non-treated control 10
Description: Male Sprague-Dawley rats (380-450 g b.w.) were anaesthetized with sodiumpentobarbital (Nembutal 60 mg/kg body weight, i.p.) and artificially ventilated with room air (2 ml/100 g; 54 stroke/minutes) via tracheotomy. The right carotid artery was catheterized and connected to a pressure transducer (BPR-01, Stoelting) for the measurement of systemic arterial blood pressure (BP) by means of a preamplifier (Hg-02, Experimetria). Hydroxylamine derivatives disclosed in Example 5 were administered via the venous cannule to jugular vein (i.v.) and orally (p.o.). Heart rate (HR) was measured by a cardiotachometer (HR-01, Experimetria). The electrocardiogram (ECG standard lead II) was recorded on a devices recorder (MR-12, Medicor) by means of subcutaneous steel needles electrodes. The chest was opened by a left thoracotomy and the heart was exteriorized by a gentle pressure on the right side of the rib cage. A 4-0 silk suture was quickly placed under the main left coronary artery as described by Selye et al. (1960). The heart was carefully replaced in the chest and the animal left to recover. Rectal temperature was monitored and kept constant at 37 C. The experimental protocol was initiated with a 15 minute stabilization period during which the observation of a sustained blood pressure less than 70 mmHg and or the occurrence of anhythmia led to exclusion. Myocardial ischemia was induced with coronary occlusion for 5 minutes and reperfusion allowed for 10 minutes.
During the entire experiment BP, HR and ECG were continuously registered on a multiscriptor (R61-6CH, Medicor). Hydroxylamine derivatives, the tautomeric forms of which are represented by structures (I) and (II), were administered 5 to 60 minutes before the occlusion after i.v. and p.o. treatment, respectively. […]
The mean duration of ventricular tachycardia (VT) and/or ventricular fibrillation (VF) during the first 3 minutes of reperfusion was analyzed by one-way analysis of variance. The incidence of VF was analyzed using a chi-square test. […] The haemodynamic variables were analyzed using Student's “t”-test. The critical level of significance was set at p<0.05. All results were expressed as a means±S.E.M. Drugs were administered i.v. in a dose of 1 mg/kgbw 5 min. before the occlusion.
The hydroxylamine derivatives that are found to be particularly advantageous for protecting an animal against ischemic/reperfusion injury are listed below. Survival (%) indicates the percent of animals survived the effects of 5 minutes coronary occlusion.

HSP72 [1] = experiment: Heat stress induced HSP72 production in 3T3 cells; format: cell-based, mouse; details: 10^−5 M
Description: From the applied cells the 3T3 and L-929 mouse fibroblasts were cultured in MEM medium and grew in monolayer, the U-937 human leukemia cells were maintained in RPMI-1640 medium, in suspension culture, while the HeLa human epithelial cells were cultured in DMEM medium and in monolayer form. Cell cultures were maintained as described in example 6.2 (a) with the difference that cells were cultured in the above mentioned culture mediums.
Experiments were carried out applying stress before and after the drug treatment. Stress was provoked by heat, by chemical agent, HgCl2 treatment. The test compounds were applied in the treatments at the 10^−5 M concentration.
The experiments on 3T3 cell applying heat stress were performed as described in the 6.2. (c) point of example 6, with the difference that stress was induced by a 30 min. exposure at 43° C. temperature and treatment with the test compounds was performed 15 min. before or 100 min. after the heat stress.
Immunodetection was carried out using the HSP72 specific SPA 810 (StressGene) primary and the horse-radish peroxidase conjugated A9044 (Sigma) secondary antibodies. Densitometric evaluation was performed by a LKB Ultrascan XL densitometer.

Hsp72 [2] = experiment: Heat stress induced hsp72 expression in rat testicular explant; format: cell-based; details: 10^−5 M, 15 min. before 43° C. 30 min.
Description: Testis of CFY rats weighing of 200 g were removed in sterile conditions and the released testicular tubuli were suspended in 10% fetal bovine serum containing MEM culture medium in that way that five ml suspension contained 50-100 mg tissue. The explants were incubated in 5% CO2 containing humidified air at 37° C. for one hour, then the cultures were treated with 10^−5 M concentration of the tested compounds. After a further incubation for 15 min. at 37° C., explants were exposed to heat shock at 43° C. for 30 min. The amount of the induced hsp72 was measured after a further 6 hours incubation at 37° C.

[3] = treatment 15 min. before 30 min. 43° C. heat stress
[4] = treatment 100 min. after 30 min. 43° C. heat stress

Compound | Survival (%) (Male Sprague-Dawley rats) | HSP72 level relative to the stress exposed control (HSP72 [1]; [3]) | Level of hsp72 relative to the stress exposed control (Hsp72 [2]) | melting point [°C] | HSP72 level relative to the stress exposed control (HSP72 [1]; [4])
O=C(O)/C=C\C(=O)O.O[C@@H](CON=C(Cl)c1cccnc1)CN1CCCCC1 [Example 77, /R/(+)-N-[2-hydroxyl-3-(1-piperidinyl)propoxy]-3-pyridinecarboximidoyl chloride (Z)-2-butenedioate (1:1)] | 67 | +++ (>100%) |  |  | 
CC(C)(C)NCC(O)CON=C(Cl)c1cccc(C(F)(F)F)c1.Cl (stereo not drawn) [Example 9, N-[3-[(1,1-Dimethylethyl)amino]-2-hydroxypropoxy]-3-trifluoromethylbenzene-carboximidoyl chloride monohydrochloride] | 100 |  | + (21-50%) |  | 
Cl.Cl.N=C(NOCC(O)CN1CCCCC1)c1ccccc1[N+](=O)[O-] (stereo not drawn) |  |  |  | 200 to 208 | 
Cl.N=C(NOCCCN1CCCCC1)c1cccc([N+](=O)[O-])c1 |  |  |  | 158 to 162 | 
Cl.Cl.N=C(NOCC(O)CN1CCCCC1)c1nccc2ccccc12 (stereo not drawn) [Example 46, N-[2-hydroxy-3-(1-piperidinyl)propoxy]-1-isoquinolinecarboximidoyl dihydrochloride] |  |  | + + + |  | 
COc1ccc(CC(=N)NOCCCN2CCCCC2)cc1OC.Cl.Cl |  |  |  | 207 to 209 | 
CCCCCCCCCCCCCCCC(=O)OC(CONC(=N)c1cccnc1)CN1CCCCC1.Cl (stereo not drawn) [Example 22, N-[2-palmitoyloxy-3-(1-piperidinyl)propoxy]-3-pyridinecarboximidamide monohydrochloride] | 100 | +++ (>100%) | 0 (0 indicates that the treatment altered by ±20% the stress induced hsp72 level in the cells) |  | + (21-50%)
CN(OCCCN1CCCCC1)C(=O)c1ccccc1.Cl [N-methyl-N-[3-(1-piperidinyl)-propoxy]-benzamide hydrochloride] |  | + (21-50%) | + (21-50%) |  | 
Cl.Cl.ClC(=NOCCCN1CCCCC1)c1cccnc1 [Example 78, N-(3-piperidino-1-propoxy)-3-pyridinecarboximidoyl chloride dihydrochloride] | 100 | +++ (>100%) | + + |  | 
N=C(NOCC(CN1CCCCC1)OC(=O)c1ccco1)c1cccnc1.O=C(O)/C=C\C(=O)O (stereo not drawn) |  |  |  | 167 to 171.5 | 
Cl.Cl.N=C(NOCCCN1CCCCC1)c1ccccc1 |  |  |  | 207 to 209 | 
Cl.O=[N+]([O-])c1ccc(C(Cl)=NOCC(O)CN2CCCCC2)cc1 (stereo not drawn) |  |  |  | 180 to 182 | 
Cl.O=[N+]([O-])c1cccc(C(Cl)=NOCC(O)CN2CCCCC2)c1 (stereo not drawn) [Example 4, N-[2-hydroxy-3-(1-piperidinyl)propoxy]-3-nitro-benzenecarboximidoyl chloride monohydrochloride] | 50 |  | + (21-50%) |  | 
Cl.ClC(=NOCCCN1CCCCC1)c1cccs1 [N-[3-(1-piperidinyl)-propoxy]-tiophene-2-carboximidoyl-chloride-hydrochloride] |  |  | + + |  | 
CC(=O)Nc1ccc(C(N)=NOCC(O)CN2CCCCC2)cc1.Cl (stereo not drawn) [Example 39] | 60 |  | 0 (0 indicates that the treatment altered by ±20% the stress induced hsp72 level in the cells) |  | 
Cl.N=C(NOCC(CN1CCCCC1)OC(=O)c1ccccc1Cl)c1cccnc1 (stereo not drawn) |  |  |  | 91 to 94 | 
CCCCCCNC(=O)NOCC(O)CN1CCCCC1 (stereo not drawn) [Example 58, N-hexyl-N′-[2-hydroxy-3-(1-piperidinyl)propoxy]-urea] |  |  | 0 (0 indicates that the treatment altered by ±20% the stress induced hsp72 level in the cells) |  | +++ (>100%)
CCN(CC)CCCON=C(Cl)c1cccnc1.Cl [O-(3-diethylamino-propoxy)-3-pyridine-carboximidoyl-chloride hydrochloride] |  | +++ (>100%) | 0 (0 indicates that the treatment altered by ±20% the stress induced hsp72 level in the cells) |  | 
CCN(CC)C(=NOCC(O)CN1CCCCC1)c1cccnc1.Cl (stereo not drawn) [Example 51] | 75 | +++ (>100%) |  |  | 
O=C(NOCC(O)CN1CCCCC1)c1cccc2ccccc12 (stereo not drawn) [Example 54, N-[2-hydroxy-3-(1-piperidinyl)propoxy]naphthalene-1-carboxamide] | 80 | +++ (>100%) |  |  | ++ (51-100%)
O=C(O)/C=C\C(=O)O.OC(CON=C(Cl)c1ccncc1)CN1CCCCC1 (stereo not drawn) [Example 8, N-[2-hydroxy-3-(1-piperidinyl)propoxy]-4-pyridinecarboximidoyl chloride (Z)-2-butenedioate (1:1)] | 100 |  |  |  | ++ (51-100%)
CCN(CC)CC1CON=C(c2cccnc2)O1.Cl (stereo not drawn) [3-(3-piridyl)-5-diethylaminomethyl-5,6-dihydro-6H-1,4,2-dioxazine hydrochloride] |  | + (21-50%) | + + |  | 
CC(=NOCC(O)CNC(C)(C)C)c1cccc(C(F)(F)F)c1.CC(=O)O (stereo not drawn) [1-{[3-(t-butylamino)-2-hydroxy-propoxy]-imino}-1-(m-trifluoromethyl-phenyl)-ethane acetate] |  | +++ (>100%) | + (21-50%) |  | 
5,6-dihydro-3-(4-chloro-phenyl)-5-[N-methyl-piperidinium-1-yl]-methyl-4H-1,2,4-oxadiazine iodide |  | ++ (51-100%) | + (21-50%) |  | 
CCCCCCNC(=O)NOCCCN1CCCCC1 [Example 61, N-hexyl-N′-[3-(1-piperidinyl)propoxy]-urea] |  | ++ (51-100%) | 0 (0 indicates that the treatment altered by ±20% the stress induced hsp72 level in the cells) |  | 
Cl.O=[N+]([O-])c1ccccc1C(Cl)=NOCC(O)CN1CCCCC1 (stereo not drawn) [Example 6, N-[2-hydroxy-3-(1-piperidinyl)propoxy]-2-nitro-benzenecarboximidoyl chloride monohydrochloride] | 100 | +++ (>100%) | + + |  | 0 (0 indicates that the treatment altered by ±20% the stress induced hsp72 level in the cells)
CC(C)(C)NC1CON=C(c2cccnc2)O1 (stereo not drawn) [3-(3-piridyl)-5-t-butylamino-5,6-dihydro-6H-1,4,2-dioxazine] |  | + (21-50%) | 0 (0 indicates that the treatment altered by ±20% the stress induced hsp72 level in the cells) |  | 
C[n+]1cccc(C(Cl)=NOCC(O)C[N+]2(C)CCCCC2)c1.[I-].[I-] (stereo not drawn) [Example 16, N′-[2-hydroxy-3-(1-methyl-1-piperidinium-1-yl)propoxy]-N-methyl-pyridinium-3-carboximidoyl chloride diiodide] | 67 | +++ (>100%) |  |  | +++ (>100%)
